Test system: 233499-124-R-J3-PDC complex spheroid growth
Experiment: Anticancer human tumor 233499-124-R-J3-PDC patient-derived colon adenocarcinoma cell line growth inhibition [AhR]
Conditions: for IC50: curve of first compound; for viability, T/C: stronger effect = lower value
Source text: Multicellular complex tumor spheroid response to aryl hydrocarbon receptor antagonists in combination with a variety of drugs and investigational agents in selected tumor cell lines
The current study was undertaken to assess response to aryl hydrocarbon receptor antagonists in combination with standard-of-care drugs and investigational agents in solid tumor complex spheroid models. Complex spheroids include a stromal component modeled by human endothelial cells (HUVEC) and fibroblasts modeled by human mesenchymal stem cells (MSCs). The concentration ranges selected for each drug and investigational agent were based upon clinically achievable concentrations if the clinical Cmax of the agent was known.
Compounds. The drugs and investigational agents: BAY 2416964 (NSC825713), GNF351 (NSC835774), CH-223191 (NSC835775), CPI-455 (NSC825282), aza-TdCyd (NSC777586), decitabine (NSC127716), belinostat (NSC758774), entinostat (NSC756642), pevonedistat (NSC761192), tazemetostat (NSC777109), talazoparib (NSC765396), olaparib (NSC753686), selinexor (NSC780203), nedisertib (M3814, NSC802822), bortezomib (NSC756655), venetoclax (NSC766270), doxorubicin (NSC123127), elimusertib (BAY189344, NSC800525), ceralasertib (AZD6738, NSC777638), TAK-243 (NSC785004), alisertib (NSC759677), etoposide (NSC141540), topotecan (NSC609699), eribulin (NSC707389), gemcitabine (NSC613327), carboplatin (NSC241240), cisplatin (NSC119875), and SN-38 (NSC673596) were obtained from the National Cancer Institute (NCI) Developmental Therapeutics Program Chemical Repository (32). The FDA-approved anticancer drug set is available from the Developmental Therapeutics Program at https://dtp.cancer.gov/organization/dscb/obtaining/available plates.htm. […] The stock solutions were prepared in dimethyl sulfoxide (DMSO, Sigma-Aldrich, St. Louis, MO, cat. D2650), except for the platinum compounds which were prepared in saline (Quality Biological, Gaithersburg, MD, cat. 114-055-101), at 800-fold the tested concentration and stored at -70 degrees C prior to their use. All drugs and investigational agents were tested over a range starting from a high concentration at or near the clinical Cmax and decreasing in half-log increments. If the clinical Cmax for an agent had not been determined, the highest concentration tested was 10 microM (Table 1).
Cell Culture. All cells were maintained in an incubator at 37 degrees C and 5% CO2 with 95% humidity. The PDC lines were cultured according to standard operating procedures established by the NCI PDMR (https://pdmr.cancer.gov). Briefly, all PDCs were thawed and cultured in Matrigel-coated flasks prepared with a working solution of 1X Ham's F-12 nutrient mix, without supplementation (Invitrogen, Waltham, MA, cat. 11765054), 100 U/mL penicillin-streptomycin (Invitrogen, cat. 15140122), and 2.5% Matrigel (Corning Inc., Corning, NY, cat. 354248) for the first three passages. All PDCs were cultured in complete DMEM/F-12 media containing advanced DMEM/F-12 (Invitrogen, cat. 12634028), 4.9% defined fetal bovine serum, heat inactivated (HyClone Laboratories Inc., Logan, UT, cat. SH30070.03HI), 389 ng/mL hydrocortisone (Sigma-Aldrich, cat. H4001), 9.7 ng/mL human EGF recombinant protein (Invitrogen, cat. PHG0313), 23.4 microg/mL adenine (Sigma-Aldrich, cat. A2786), 97.3 U/mL penicillin-streptomycin (Invitrogen, cat. 15140122), 1.9 mM L-glutamine (Invitrogen, cat. 25030081), and 9.7 microM Y-27632 dihydrochloride (Tocris Bioscience, Bristol, United Kingdom, cat. 1254). The PDCs were cultured in complete DMEM/F12 media without 10 microM Y-27632 dihydrochloride for at least two passages prior to the screen. The established cell lines NCI-H1341 and […] were cultured in DMEM/F-12, HEPES (Invitrogen, cat. 11330032), 5% defined fetal bovine serum (HyClone Laboratories Inc., cat. SH30070.03), ITS premix universal culture supplement [insulin (5 microg/mL), transferrin (5 microg/mL), and selenious acid (5 ng/mL)] […]

[1] = second compound 0.1 µM, first compound 0.0316 µM
[2] = second compound 0.1 µM, first compound 0.1 µM
[3] = second compound 0.1 µM, first compound 0.316 µM
[4] = second compound 0.1 µM, first compound 1 µM
[5] = second compound 0.1 µM, first compound 3.16 µM
[6] = second compound 0.1 µM, first compound 10 µM
[7] = second compound 0.316 µM, first compound 0.0316 µM
[8] = second compound 0.316 µM, first compound 0.1 µM
[9] = second compound 0.316 µM, first compound 0.316 µM
[10] = second compound 0.316 µM, first compound 1 µM
[11] = second compound 0.316 µM, first compound 3.16 µM
[12] = second compound 0.316 µM, first compound 10 µM
[13] = second compound 1 µM, first compound 0.0316 µM
[14] = second compound 1 µM, first compound 0.1 µM
[15] = second compound 1 µM, first compound 0.316 µM
[16] = second compound 1 µM, first compound 1 µM
[17] = second compound 1 µM, first compound 3.16 µM
[18] = second compound 1 µM, first compound 10 µM
[19] = second compound 3.16 µM, first compound 0.0316 µM
[20] = second compound 3.16 µM, first compound 0.1 µM
[21] = second compound 3.16 µM, first compound 0.316 µM
[22] = second compound 3.16 µM, first compound 1 µM
[23] = second compound 3.16 µM, first compound 3.16 µM
[24] = second compound 3.16 µM, first compound 10 µM
[25] = second compound 10 µM, first compound 0.0316 µM
[26] = second compound 10 µM, first compound 0.1 µM
[27] = second compound 10 µM, first compound 0.316 µM
[28] = second compound 10 µM, first compound 1 µM
[29] = second compound 10 µM, first compound 3.16 µM
[30] = second compound 10 µM, first compound 10 µM
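Also: spheroids exposed to agents for seven days before reading.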

| IC50 (second compound 0.1 µM) [µM] | IC50 (second compound 0.316 µM) [µM] | IC50 (second compound 1 µM) [µM] | IC50 (second compound 3.16 µM) [µM] | IC50 (second compound 10 µM) [µM] | Structure (SMILES) | viability, T/C [1] [%] | viability, T/C [2] [%] | viability, T/C [3] [%] | viability, T/C [4] [%] | viability, T/C [5] [%] | viability, T/C [6] [%] | viability, T/C [7] [%] | viability, T/C [8] [%] | viability, T/C [9] [%] | viability, T/C [10] [%] | viability, T/C [11] [%] | viability, T/C [12] [%] | viability, T/C [13] [%] | viability, T/C [14] [%] | viability, T/C [15] [%] | also measured |
| --- | --- | --- | --- | --- | --- | --- | --- | --- | --- | --- | --- | --- | --- | --- | --- | --- | --- | --- | --- | --- | --- |
| > 10 | > 10 | > 10 | > 10 | > 10 | COc1ccc([C@@H](O)c2cc(-c3ncnc4cc(N5CCOCC5)ccc34)c(F)cc2Cl)nn1 + CC(CO)NC(=O)c1cc(-c2ccc(Cl)cc2)nn(-c2cnn(C)c2)c1=O | 104 | 96 | 88.8 | 87 | 92.8 | 84.7 | 108 | 99.1 | 89.7 | 83 | 75.6 | 75.3 | 96.2 | 86.5 | 76.8 | viability, T/C [16]: 86.4%; viability, T/C [17]: 73.9%; viability, T/C [18]: 74.8%; viability, T/C [19]: 98.3%; viability, T/C [20]: 86.3%; viability, T/C [21]: 84.7%; viability, T/C [22]: 88.2%; viability, T/C [23]: 69.5%; viability, T/C [24]: 78.2%; viability, T/C [25]: 90.9%; viability, T/C [26]: 83.8%; viability, T/C [27]: 66.8%; viability, T/C [28]: 75.2%; viability, T/C [29]: 77%; viability, T/C [30]: 76.9% |
| 8.48 | > 10 | 2.77 | 1.35 | < 0.0316 | COc1cccc2c1C(=O)c1c(O)c3c(c(O)c1C2=O)CC(O)(C(=O)CO)CC3OC1CC(N)C(O)C(C)O1 (stereo not given) + Cc1cncc(-c2nc(NCCc3c[nH]c4ccccc34)c3ncn(C(C)C)c3n2)c1 | 102 | 84.1 | 80.3 | 83.2 | 49.3 | 51.2 | 73.8 | 90.8 | 79.8 | 78 | 61.3 | 50.6 | 87.4 | 72.8 | 76.9 | viability, T/C [16]: 71%; viability, T/C [17]: 46.9%; viability, T/C [18]: 32.5%; viability, T/C [19]: 81.8%; viability, T/C [20]: 87.1%; viability, T/C [21]: 77.5%; viability, T/C [22]: 60.8%; viability, T/C [23]: 21.3%; viability, T/C [24]: 4.5%; viability, T/C [25]: 7.64%; viability, T/C [26]: 13.7%; viability, T/C [27]: 41%; viability, T/C [28]: 13.4%; viability, T/C [29]: 14.4%; viability, T/C [30]: 0.5% |

Reference: PubChem BioAssay AID1918993 (Molecular Pharmacology Branch, DTP, NCI, 2023)
